We go through three compounds from ChEMBL document CHEMBL1201862, “PubChem BioAssay data set” (2004).

Each structure is given as a SMILES string. The source made the active and inactive calls.

In experiment [1] the target is T1, Insulin-degrading enzyme (Homo sapiens, UniProt P14735).
T1 sequence (P14735 whole entry): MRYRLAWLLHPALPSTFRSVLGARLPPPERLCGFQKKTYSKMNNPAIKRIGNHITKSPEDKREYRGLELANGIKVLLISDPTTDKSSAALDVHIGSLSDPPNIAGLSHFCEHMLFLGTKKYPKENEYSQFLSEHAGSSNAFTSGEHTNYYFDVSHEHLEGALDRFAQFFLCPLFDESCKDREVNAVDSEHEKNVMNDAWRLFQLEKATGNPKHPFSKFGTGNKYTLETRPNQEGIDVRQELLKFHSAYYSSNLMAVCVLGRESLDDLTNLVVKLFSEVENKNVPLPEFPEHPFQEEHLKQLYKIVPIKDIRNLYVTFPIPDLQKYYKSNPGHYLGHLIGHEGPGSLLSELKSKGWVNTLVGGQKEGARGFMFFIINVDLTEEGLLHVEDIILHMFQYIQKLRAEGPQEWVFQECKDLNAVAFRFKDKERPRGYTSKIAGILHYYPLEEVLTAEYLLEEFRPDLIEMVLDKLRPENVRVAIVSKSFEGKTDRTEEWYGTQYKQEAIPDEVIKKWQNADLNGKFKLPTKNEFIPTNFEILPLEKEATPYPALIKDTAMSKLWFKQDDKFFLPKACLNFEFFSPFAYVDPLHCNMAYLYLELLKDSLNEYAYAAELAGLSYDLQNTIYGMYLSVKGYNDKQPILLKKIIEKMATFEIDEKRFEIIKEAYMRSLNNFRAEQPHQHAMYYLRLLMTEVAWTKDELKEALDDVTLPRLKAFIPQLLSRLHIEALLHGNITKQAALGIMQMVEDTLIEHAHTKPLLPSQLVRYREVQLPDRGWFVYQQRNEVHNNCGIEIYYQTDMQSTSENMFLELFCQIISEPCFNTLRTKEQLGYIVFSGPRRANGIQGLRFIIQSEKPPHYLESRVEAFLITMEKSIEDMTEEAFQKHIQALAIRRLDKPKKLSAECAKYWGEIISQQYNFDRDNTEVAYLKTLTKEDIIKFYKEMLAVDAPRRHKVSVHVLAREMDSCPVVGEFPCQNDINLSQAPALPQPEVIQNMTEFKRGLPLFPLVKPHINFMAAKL
Description: recombinant IDE activation, cell-free – biochemical, fluorescence polarization, counter-screen for IDE activator project, dose response (AID 588681). (In fluorescence polarisation assays a small probe gives low polarisation when free and higher when bound to something large.)

The target of experiment [2] is T2, Intestinal-type alkaline phosphatase (Homo sapiens, UniProt P09923). Description: inhibition of human intestinal alkaline phosphatase – biochemical, luminescent, uHTS hits, set 2, dose response (AID 488793). It is filed as functional.
T2 sequence (P09923 whole entry): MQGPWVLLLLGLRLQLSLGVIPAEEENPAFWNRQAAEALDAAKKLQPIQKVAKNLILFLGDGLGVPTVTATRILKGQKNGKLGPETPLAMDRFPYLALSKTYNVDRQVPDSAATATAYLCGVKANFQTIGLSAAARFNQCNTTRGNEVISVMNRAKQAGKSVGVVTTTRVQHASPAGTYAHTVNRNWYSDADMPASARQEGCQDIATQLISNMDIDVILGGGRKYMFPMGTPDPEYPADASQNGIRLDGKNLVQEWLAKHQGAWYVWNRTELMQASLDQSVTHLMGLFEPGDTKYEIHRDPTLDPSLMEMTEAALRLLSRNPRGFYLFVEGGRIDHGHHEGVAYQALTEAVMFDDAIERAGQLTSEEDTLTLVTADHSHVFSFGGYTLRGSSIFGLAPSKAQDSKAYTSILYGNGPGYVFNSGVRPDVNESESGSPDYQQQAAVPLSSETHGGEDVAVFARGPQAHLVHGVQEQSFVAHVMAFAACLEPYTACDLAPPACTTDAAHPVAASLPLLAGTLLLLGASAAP
Experiment [3] addresses ORF 73 (Human herpesvirus 8, UniProt O40947). Description: KSHV LANA DNA-binding disruption – biochemical, fluorescence polarization, cherry-picked samples, dose response (AID 504725).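 Further: fluorescence polarization of a labeled DNA duplex reporting LANA DNA binding; potency is for inhibitors that block LANA binding to the DNA.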 The arrangement: species or system Human gammaherpesvirus 8.
Experiment [4] deals with Intestinal-type alkaline phosphatase (Mus musculus, UniProt P24822). Description: PubChem AID 488874. It is filed as functional.
Chain of Intestinal-type alkaline phosphatase (Mus musculus, UniProt P24822) (P24822 whole entry): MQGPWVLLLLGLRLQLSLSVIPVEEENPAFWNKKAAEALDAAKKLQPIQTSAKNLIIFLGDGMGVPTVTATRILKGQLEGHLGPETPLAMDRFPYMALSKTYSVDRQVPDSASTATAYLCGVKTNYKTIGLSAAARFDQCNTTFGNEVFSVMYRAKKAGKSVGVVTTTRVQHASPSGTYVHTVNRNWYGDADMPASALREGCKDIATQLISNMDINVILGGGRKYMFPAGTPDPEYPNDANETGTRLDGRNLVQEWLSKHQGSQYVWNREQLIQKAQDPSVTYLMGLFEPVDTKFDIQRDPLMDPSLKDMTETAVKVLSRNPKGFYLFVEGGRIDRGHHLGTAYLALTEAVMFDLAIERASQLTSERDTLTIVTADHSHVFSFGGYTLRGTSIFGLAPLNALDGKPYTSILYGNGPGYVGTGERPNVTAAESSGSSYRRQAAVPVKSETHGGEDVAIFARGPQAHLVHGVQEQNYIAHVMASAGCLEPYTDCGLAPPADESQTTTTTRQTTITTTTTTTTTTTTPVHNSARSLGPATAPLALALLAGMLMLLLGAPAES
In experiment [5] the target is Beta-lactamase (Salmonella choleraesuis (strain SC-B67), UniProt Q5J463).
Chain of Beta-lactamase (Salmonella choleraesuis (strain SC-B67), UniProt Q5J463) (Q5J463 whole entry): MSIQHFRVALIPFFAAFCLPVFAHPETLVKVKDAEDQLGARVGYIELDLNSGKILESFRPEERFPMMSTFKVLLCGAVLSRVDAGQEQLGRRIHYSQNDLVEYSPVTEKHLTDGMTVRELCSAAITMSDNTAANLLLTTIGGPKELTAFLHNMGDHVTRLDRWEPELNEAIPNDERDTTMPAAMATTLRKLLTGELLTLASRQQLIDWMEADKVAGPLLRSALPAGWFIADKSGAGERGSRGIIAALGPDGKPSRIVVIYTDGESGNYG
Experiment [6] deals with HEK293. Put plainly: optical interference in Abeta FP readout, dose response, artefact control for IDE activator project, biochemical, fluorescence polarization (AID 588442). As to conditions: Homo sapiens. It counts as functional, cell-based.
Experiment [7] deals with HEK293. Put plainly: membrane integrity loss in HEK cells – cell-based, fluorescence, cytotoxicity control for IDE activator project, dose response (AID 588440).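 Further: cytotoxicity by LDH release measuring loss of membrane integrity.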 As to conditions: Homo sapiens. It counts as functional.
Experiment [8] has as its target T1, Insulin-degrading enzyme. Description: cellular IDE activation of Abeta substrate cleavage – fluorescence polarization, HEK cells, dose response (AID 588439). It is filed as functional, cell-based.
For experiment [9], the target named is T2, Intestinal-type alkaline phosphatase. Put plainly: Dose Response confirmation of uHTS hits from a small molecule inhibitors of human intestinal alkaline phosphatase via a luminescent assay. [Related pubchem assays (depositor defined):AID2544, AID2574]. It is filed as functional.
Experiment [10] concerns the target Beta-lactamase (Pseudomonas aeruginosa, UniProt Q79MP6).
Experiment [11] addresses T3, Alkaline phosphatase, tissue-nonspecific isozyme (Homo sapiens, UniProt P05186).
T3 sequence (P05186 whole entry): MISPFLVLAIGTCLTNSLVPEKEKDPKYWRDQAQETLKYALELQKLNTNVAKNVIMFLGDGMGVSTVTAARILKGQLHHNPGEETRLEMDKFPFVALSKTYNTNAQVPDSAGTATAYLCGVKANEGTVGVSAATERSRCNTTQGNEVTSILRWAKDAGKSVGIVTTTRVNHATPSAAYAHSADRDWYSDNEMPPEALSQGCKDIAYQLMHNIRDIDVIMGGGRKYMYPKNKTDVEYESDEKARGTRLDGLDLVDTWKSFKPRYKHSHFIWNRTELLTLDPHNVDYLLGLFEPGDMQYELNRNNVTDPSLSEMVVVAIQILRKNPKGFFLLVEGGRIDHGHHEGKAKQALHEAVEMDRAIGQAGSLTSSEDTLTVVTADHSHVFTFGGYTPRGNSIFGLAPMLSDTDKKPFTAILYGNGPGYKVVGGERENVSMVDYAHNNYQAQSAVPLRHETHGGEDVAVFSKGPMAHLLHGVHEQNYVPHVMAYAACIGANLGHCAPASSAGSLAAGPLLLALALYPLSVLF
Put plainly: inhibition of tissue-nonspecific alkaline phosphatase – biochemical, dose response (AID 488882). It is filed as functional.

Experiment [12] concerns the target T4, Orexin/Hypocretin receptor type 1 (Homo sapiens, UniProt O43613). Description: Fluorescence-based cell-based high throughput dose response assay for antagonists of the orexin 1 receptor (OX1R; HCRTR1). [Related pubchem assays (depositor defined):AID434989, AID435008, AID463079, AID485270, AID492963, AID492964, AID492965, AID493232, AID504717, AID504718]. It is filed as functional.

Experiment [13] addresses T5, Orexin receptor type 2 (Homo sapiens, UniProt O43614). Description: Counterscreen assay for antagonists of the orexin 1 receptor (OX1R; HCRTR1): Fluorescence-based cell-based dose response assay for antagonists of the orexin 2 receptor (OX2R; HCRTR2), run by assay provider. It counts as functional. Background: Counterscreens check selectivity or assay interference.

Experiment [14] can be described thus: Counterscreen for antagonists of the orexin 1 receptor (OX1R; HCRTR1): Fluorescence-based cell-based high throughput dose response assay to identify antagonists of the parental CHO cell line. [Related pubchem assays (depositor defined):AID434989, AID435008, AID463079, AID485270, AID492963, AID492964, AID492965, AID493232, AID504699, AID504701]. It is filed as functional.

Experiment [15] addresses T6, RNA-binding protein pos-1 (Caenorhabditis elegans, UniProt G5EF15).
T6 sequence (G5EF15 whole entry): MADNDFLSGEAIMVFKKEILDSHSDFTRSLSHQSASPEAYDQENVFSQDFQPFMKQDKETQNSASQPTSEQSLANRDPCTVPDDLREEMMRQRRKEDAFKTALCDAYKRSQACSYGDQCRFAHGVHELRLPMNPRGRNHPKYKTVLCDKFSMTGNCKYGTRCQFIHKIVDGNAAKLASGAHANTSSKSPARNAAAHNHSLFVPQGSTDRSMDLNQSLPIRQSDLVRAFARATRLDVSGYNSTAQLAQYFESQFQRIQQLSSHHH
Put plainly: disruptors of C. elegans POS-1 RNA interaction – biochemical, fluorescence polarization, dose response (AID 1964).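 Further: purified POS-1 fused to maltose binding protein made in E. coli; potency of compounds blocking POS-1 binding to fluorescent RNA.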

Experiment [16] deals with CHO-K1. Description: Counterscreen for antagonists of the orexin 1 receptor (OX1R; HCRTR1): Homogeneous time resolved fluorescence (HTRF)-based cell-based dose response assay to identify antagonists of the parental CHO-K1 cell line. [Related pubchem assays (depositor defined):AID434989, AID435008, AID463079, AID485270, AID492963, AID492964, AID492965, AID493232, AID504699, AID504701]. It counts as functional. As to conditions: Cricetulus griseus.

Experiment [17] addresses T4, Orexin/Hypocretin receptor type 1. Put plainly: Homogeneous Time Resolved Fluorescence (HTRF)-based cell-based high throughput dose response assay for antagonists of the orexin 1 receptor (OX1R; HCRTR1). [Related pubchem assays (depositor defined):AID434989, AID435008, AID463079, AID485270, AID492963, AID492964, AID492965, AID493232, AID504717, AID504718]. It counts as functional. For orientation: Time-resolved FRET reads energy transfer from a long-lived donor to a nearby acceptor.

The target of experiment [18] is T5, Orexin receptor type 2. Put plainly: Counterscreen assay for antagonists of the orexin 1 receptor (OX1R; HCRTR1): Homogeneous Time Resolved Fluorescence (HTRF)-based cell-based dose response assay for antagonists of the orexin 2 receptor (OX2R; HCRTR2), run by assay provider. It counts as functional.
For experiment [19], the target named is T7, Zinc finger protein mex-5 (Caenorhabditis elegans, UniProt Q9XUB2).
T7 sequence (Q9XUB2 whole entry): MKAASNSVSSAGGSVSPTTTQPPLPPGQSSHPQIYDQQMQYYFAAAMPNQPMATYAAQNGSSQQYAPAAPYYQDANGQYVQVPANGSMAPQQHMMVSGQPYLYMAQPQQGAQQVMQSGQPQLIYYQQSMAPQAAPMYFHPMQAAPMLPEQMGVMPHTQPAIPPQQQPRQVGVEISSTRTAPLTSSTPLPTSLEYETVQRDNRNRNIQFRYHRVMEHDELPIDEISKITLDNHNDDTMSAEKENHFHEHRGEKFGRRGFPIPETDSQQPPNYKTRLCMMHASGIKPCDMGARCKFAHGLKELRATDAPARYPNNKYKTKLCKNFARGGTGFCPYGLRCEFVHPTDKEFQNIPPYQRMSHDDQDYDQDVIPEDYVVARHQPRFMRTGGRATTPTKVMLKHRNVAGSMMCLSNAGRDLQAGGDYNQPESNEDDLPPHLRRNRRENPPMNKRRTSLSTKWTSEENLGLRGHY
Description: potency of MEX-5 RNA-binding blockers – biochemical, C. elegans, fluorescence polarization, dose response (AID 1960).

Experiment [20] deals with Sphingosine 1-phosphate receptor 2 (Homo sapiens, UniProt O95136). Put plainly: Late-stage fluorescence-based dose-response cell-based counterscreen assay to identify agonists of the Sphingosine 1-Phosphate Receptor 3 (S1P3): Sphingosine 1-Phosphate Receptor 2 (S1P2) agonist assay. It is filed as functional.
Chain of Sphingosine 1-phosphate receptor 2 (O95136 whole entry): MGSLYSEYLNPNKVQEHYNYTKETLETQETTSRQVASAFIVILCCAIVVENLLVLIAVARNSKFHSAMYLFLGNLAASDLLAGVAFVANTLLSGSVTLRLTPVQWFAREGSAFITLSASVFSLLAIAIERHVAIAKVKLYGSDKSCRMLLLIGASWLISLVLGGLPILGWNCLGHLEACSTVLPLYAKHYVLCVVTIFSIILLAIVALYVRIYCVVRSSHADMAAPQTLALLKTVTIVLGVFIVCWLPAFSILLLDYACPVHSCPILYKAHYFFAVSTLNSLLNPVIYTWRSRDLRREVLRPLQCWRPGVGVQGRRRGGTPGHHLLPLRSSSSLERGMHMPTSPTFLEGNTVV
In experiment [21] the target is T8, Sphingosine 1-phosphate receptor 4 (Homo sapiens, UniProt O95977).
T8 sequence (O95977 whole entry): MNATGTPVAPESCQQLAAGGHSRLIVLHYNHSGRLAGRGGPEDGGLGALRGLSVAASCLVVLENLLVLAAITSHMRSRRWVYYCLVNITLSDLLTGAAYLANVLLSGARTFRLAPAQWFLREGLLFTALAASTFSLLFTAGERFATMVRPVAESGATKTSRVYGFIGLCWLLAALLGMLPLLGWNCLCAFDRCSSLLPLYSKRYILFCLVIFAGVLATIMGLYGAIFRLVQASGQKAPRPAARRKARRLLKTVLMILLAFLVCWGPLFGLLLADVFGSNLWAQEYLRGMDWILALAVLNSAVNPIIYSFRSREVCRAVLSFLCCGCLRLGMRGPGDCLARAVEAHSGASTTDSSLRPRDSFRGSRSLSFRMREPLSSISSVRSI
Description: Late-stage fluorescence-based dose-response cell-based counterscreen assay to identify agonists of the Sphingosine 1-Phosphate Receptor 3 (S1P3): Sphingosine 1-Phosphate Receptor 4 (S1P4) agonist assay. It is filed as functional.

T4 sequence (O43613 whole entry): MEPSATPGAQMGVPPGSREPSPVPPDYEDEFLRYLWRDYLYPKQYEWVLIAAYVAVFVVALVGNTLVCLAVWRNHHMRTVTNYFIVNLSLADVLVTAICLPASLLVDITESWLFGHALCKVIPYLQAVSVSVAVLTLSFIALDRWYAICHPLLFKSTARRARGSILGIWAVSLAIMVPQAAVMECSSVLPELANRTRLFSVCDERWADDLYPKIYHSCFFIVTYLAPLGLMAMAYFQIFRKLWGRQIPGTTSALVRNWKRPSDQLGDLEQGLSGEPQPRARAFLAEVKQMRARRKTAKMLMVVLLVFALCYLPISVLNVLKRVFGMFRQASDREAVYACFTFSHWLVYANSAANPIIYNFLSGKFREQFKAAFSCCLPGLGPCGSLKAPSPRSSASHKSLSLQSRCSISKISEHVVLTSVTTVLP
T5 sequence (O43614 whole entry): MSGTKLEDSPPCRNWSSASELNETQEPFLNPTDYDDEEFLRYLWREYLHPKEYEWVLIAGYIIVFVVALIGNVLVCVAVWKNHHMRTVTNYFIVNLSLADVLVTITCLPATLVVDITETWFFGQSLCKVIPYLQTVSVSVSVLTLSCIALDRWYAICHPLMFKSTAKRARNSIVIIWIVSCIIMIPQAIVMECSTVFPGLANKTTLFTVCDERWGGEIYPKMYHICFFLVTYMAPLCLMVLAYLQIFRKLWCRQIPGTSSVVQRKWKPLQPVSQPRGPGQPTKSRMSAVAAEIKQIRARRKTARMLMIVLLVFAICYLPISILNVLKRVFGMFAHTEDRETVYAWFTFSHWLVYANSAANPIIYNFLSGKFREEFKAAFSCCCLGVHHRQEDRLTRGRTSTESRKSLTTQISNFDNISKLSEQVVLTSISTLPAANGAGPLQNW
Chain of Beta-lactamase (Pseudomonas aeruginosa, UniProt Q79MP6) (Q79MP6 whole entry): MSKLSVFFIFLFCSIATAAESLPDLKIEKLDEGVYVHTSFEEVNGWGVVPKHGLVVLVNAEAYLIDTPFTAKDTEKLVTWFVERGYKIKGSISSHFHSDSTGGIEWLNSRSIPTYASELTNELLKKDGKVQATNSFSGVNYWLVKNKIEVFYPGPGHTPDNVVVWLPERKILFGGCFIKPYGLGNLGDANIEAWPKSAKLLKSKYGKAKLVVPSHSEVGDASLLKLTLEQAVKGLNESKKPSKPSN
Chain of ORF 73 (O40947 whole entry): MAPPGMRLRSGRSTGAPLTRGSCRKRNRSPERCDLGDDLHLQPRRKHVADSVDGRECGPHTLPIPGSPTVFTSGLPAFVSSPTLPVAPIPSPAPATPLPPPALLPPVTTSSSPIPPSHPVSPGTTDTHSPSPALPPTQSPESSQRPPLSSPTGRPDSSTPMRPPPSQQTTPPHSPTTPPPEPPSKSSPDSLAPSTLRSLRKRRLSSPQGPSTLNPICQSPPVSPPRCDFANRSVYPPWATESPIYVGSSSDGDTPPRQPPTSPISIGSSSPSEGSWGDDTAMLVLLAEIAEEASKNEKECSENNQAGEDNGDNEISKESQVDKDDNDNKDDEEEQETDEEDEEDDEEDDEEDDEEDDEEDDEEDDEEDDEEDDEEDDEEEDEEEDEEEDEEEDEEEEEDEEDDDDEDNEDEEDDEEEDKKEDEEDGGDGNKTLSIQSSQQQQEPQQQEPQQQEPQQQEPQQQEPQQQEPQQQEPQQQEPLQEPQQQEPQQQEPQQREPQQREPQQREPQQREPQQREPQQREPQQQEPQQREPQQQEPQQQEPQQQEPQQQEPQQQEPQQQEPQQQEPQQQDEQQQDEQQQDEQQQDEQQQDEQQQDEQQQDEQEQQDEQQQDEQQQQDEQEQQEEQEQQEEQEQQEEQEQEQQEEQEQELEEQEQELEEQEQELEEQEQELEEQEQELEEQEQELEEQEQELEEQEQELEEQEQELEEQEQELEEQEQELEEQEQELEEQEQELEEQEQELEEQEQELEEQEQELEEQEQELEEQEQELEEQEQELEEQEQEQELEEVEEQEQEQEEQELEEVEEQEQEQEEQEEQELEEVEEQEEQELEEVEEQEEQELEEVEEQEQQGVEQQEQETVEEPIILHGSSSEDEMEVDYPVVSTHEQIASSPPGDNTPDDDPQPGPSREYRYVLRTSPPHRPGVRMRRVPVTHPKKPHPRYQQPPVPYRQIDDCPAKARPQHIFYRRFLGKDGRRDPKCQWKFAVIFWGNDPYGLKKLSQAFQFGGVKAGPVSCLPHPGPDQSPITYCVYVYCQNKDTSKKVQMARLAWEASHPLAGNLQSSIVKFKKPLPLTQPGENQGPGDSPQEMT

In the case of `Nc1ccc(-c2c3ccc(=O)cc-3oc3cc(O)ccc23)cc1C(=O)O`, the EC50 in experiment [1], in [6] and in [8] was > 54.7 µM (inactive) in each case. For the same compound, the IC50 – broadly, the concentration that gives 50% inhibition – in experiment [2] is 28.1 µM (active); in experiment [4], 20.3 µM (active); in [5] it was 3.41 µM (active); in experiment [7], > 89.2 µM (inactive); in experiment [9], 14.5 µM (inactive); in experiment [10], 8.62 µM (active). Further, the 50% inhibitory concentration (IC50) in experiment [11] was 34 µM (active). Moreover, the AC50 – broadly, the midpoint of the concentration-response curve, whichever way the signal moves – in experiment [3] was 0.532 µM (active).
Turning to `Nc1c(C(=O)c2ccc(Br)s2)oc2ccccc12`, the IC50 in experiment [12] was 15.7 µM (inactive); in [13], 30.7 µM (inactive); in experiment [14], > 49.8 µM (inactive); in [16], > 66.2 µM (inactive); in [17], 6.69 µM (active); in experiment [18], > 50 µM (inactive). Also, the EC50 – broadly, the concentration that produces a half-maximal response – is 71.8 µM (active) in [15] and 106 µM (active) in [19].
Regarding `CC1CCCCC1N(C(=O)c1cc(C2CC2)on1)C1CCOCC1` (stereo unspecified), the EC50 in experiment [20] and in [21] was > 50 µM (inactive) throughout.
